This assay concerns HeLa-CASP2/CASP3/GSDMD TKO + CASP2 cells (human caspase-2). Kind of assay: ATP-based cell viability (CellTiter-Glo) in HeLa TKO cells with exogenous caspase-2 expression. As to conditions: immunoblotting, HUHS015-treated cells. The text has this:
Specific chemical compounds are powerful tools for dissecting target-related signaling mechanisms in biological contexts ([Beck et al., 2022]; [Zhang et al., 2012]). Prompted by this notion and possibly to identify a compound that could activate the PIDDosome, we designed a cell death-based high-throughput chemical screen in HeLa cells, in which a triple knockout of CASP2, CASP3, and GSDMD were constructed. CASP3 and GSDMD deficiency served as the background to minimize compound-induced nonspecific cytotoxicity and undesired pyroptosis. Using the triple knockout cells as the control, additional expression of exogenous caspase-2 allows the identification of compounds that can specifically activate the caspase-2-BID pathway and trigger apoptosis through caspase-7. […] In accordance with the apoptosis induction, HUHS015 induced evident processing of caspase-2 expressed in the triple-knockout cells (Fig. 3B). This indicated activation of caspase-2 as the protease-deficient C320A mutant of caspase-2 was not processed upon HUHS015 treatment (Fig. 3B). Accordingly, expression of caspase-2 C320A rendered no cell death in response to HUHS015 treatment (Fig. 3B).
Figure 3. Chemical screen identifies HUHS015 as an agonist of human caspase-2. (A) Screen raw data and selectivity analyses of the compound plate containing HUHS015. The ATP-based viability data of both HeLa-CASP2^−/−CASP3^−/−GSDMD^−/− (TKO) (control group) and TKO cells with exogenous caspase-2 expression (experimental group) are shown. The ratios of the cell viability between the two groups are calculated with 3 as a cutoff for positive compound hit selection. (B) HUHS015-induced cell death depends on caspase-2 activity. HeLa TKO cells expressing WT or enzymatically deficient C320A mutant of caspase-2 were treated with HUHS015. ATP-based cell viability and immunoblotting of caspase-2 cleavage are shown. (C and F) The structures and potencies of HUHS15 (C) and its optimized derivative HUHS15-036 (F). HeLa TKO cells with exogenous caspase-2 expression were treated with titrated compounds. The ATP-based viability data were plotted with compound concentration for EC50 calculation. (D) BID is required for HUHS15-induced caspase-2-dependent cell death. […] Processing of caspase-2, -3, and -7 was analyzed by immunoblotting. […] ATP-based cell viability in panels (B and D) is expressed as mean ± s.d. from three technical replicates. […]
Cell viability was measured by the ATP assay using the CellTiter-Glo® Luminescent Cell Viability Assay kit (Promega).
Drug-related Screening Library (25 × 384-well plate, more than 7,000 compounds) was used for the chemical screen in the TKO HeLa cells rescued with exogenous caspase-2 expression. […] After treatment for 12 h, the cell viability was measured by the ATP assay. […]
In general terms: In ATP-based viability assays light output follows the ATP content of the culture.

With zVAD [reference compound], the “block of HUHS015-induced caspase-2 processing” value was “not blocked”.
